Activity calls are given as the source filed them. No cut-off for these calls is given here.
Assays:
[1] = biological target: Creatine kinase M-type (Homo sapiens) (UniProt P06732); assay: Activation of human CK-MM assessed as increase in enzyme activity at 20 uM relative to control
[2] = biological target: Creatine kinase M-type (Homo sapiens) (UniProt P06732); assay: Activation of human CK-MM assessed as increase in enzyme activity at 10 uM relative to control
[3] = biological target: Creatine kinase M-type (Homo sapiens) (UniProt P06732); assay: Binding affinity to recombinant human His-tagged CK-MM at 20 uM by Biolayer Interferometry analysis
[4] = biological target: Creatine kinase M-type (Homo sapiens) (UniProt P06732); assay: Activation of human CK-MM assessed as increase in enzyme activity at 80 uM relative to control
[5] = biological target: Creatine kinase M-type (Oryctolagus cuniculus) (UniProt P00563); assay: Activation of rabbit CK-MM assessed as increase in enzyme activity at 20 uM relative to control
[6] = biological target: Creatine kinase M-type (Oryctolagus cuniculus) (UniProt P00563); assay: Binding affinity to rabbit CK-MM at 20 uM
[7] = biological target: Creatine kinase M-type (Oryctolagus cuniculus) (UniProt P00563); assay: Activation of rabbit CK-MM assessed as increase in enzyme activity at 10 uM relative to control
[8] = biological target: Creatine kinase M-type (Homo sapiens) (UniProt P06732); assay: Activation of human CK-MM assessed as increase in enzyme activity at 5 to 80 uM; conditions: dose microM 5-80
[9] = biological target: Creatine kinase M-type (Homo sapiens) (UniProt P06732); assay: Activation of human CK-MM assessed as increase in enzyme activity at 5 uM relative to control
[10] = biological target: Creatine kinase M-type (Oryctolagus cuniculus) (UniProt P00563); assay: Activation of rabbit CK-MM assessed as increase in enzyme activity at 40 uM relative to control
[11] = biological target: Creatine kinase M-type (Homo sapiens) (UniProt P06732); assay: Activation of human CK-MM assessed as increase in enzyme activity at 40 uM relative to control
[12] = biological target: Creatine kinase M-type (Oryctolagus cuniculus) (UniProt P00563); assay: Activation of rabbit CK-MM assessed as increase in enzyme activity at 5 to 80 uM; conditions: dose microM 5-80
[13] = biological target: Creatine kinase M-type (Oryctolagus cuniculus) (UniProt P00563); assay: Activation of rabbit CK-MM assessed as increase in enzyme activity at 80 uM relative to control

Sequence of Creatine kinase M-type (Oryctolagus cuniculus) (P00563 whole entry): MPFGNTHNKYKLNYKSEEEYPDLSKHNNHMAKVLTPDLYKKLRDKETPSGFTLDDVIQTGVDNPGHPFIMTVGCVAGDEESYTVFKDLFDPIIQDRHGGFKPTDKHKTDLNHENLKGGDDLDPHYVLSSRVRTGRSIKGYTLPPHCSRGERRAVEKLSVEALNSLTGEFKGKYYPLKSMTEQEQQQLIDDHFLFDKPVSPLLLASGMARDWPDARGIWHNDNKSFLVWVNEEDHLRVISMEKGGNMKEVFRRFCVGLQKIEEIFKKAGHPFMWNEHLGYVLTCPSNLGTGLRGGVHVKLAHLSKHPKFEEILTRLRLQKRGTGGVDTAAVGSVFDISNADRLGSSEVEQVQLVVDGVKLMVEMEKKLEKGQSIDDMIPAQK
Sequence of Creatine kinase M-type (Homo sapiens) (P06732 whole entry): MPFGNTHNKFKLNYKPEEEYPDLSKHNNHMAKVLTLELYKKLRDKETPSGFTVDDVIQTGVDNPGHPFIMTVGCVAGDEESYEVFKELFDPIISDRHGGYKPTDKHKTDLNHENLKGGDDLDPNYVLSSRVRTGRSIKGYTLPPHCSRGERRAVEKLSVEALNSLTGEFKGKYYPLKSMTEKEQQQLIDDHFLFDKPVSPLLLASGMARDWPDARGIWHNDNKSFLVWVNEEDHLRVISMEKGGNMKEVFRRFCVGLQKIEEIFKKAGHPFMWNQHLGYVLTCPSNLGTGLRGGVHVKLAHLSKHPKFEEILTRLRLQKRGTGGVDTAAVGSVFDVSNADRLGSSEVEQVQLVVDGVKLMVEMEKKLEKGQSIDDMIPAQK

Compound | Activity [1] | Activity [2] | Activity ([3]; filed as activator) | Activity [9] | Activity [11] | Activity [4] | also measured
CC(C)=CCC[C@](C)(O)[C@H]1CC[C@]2(C)[C@@H]1[C@H](O)C[C@@H]1[C@@]3(C)CC[C@H](O)C(C)(C)[C@@H]3CC[C@]12C | 39.2% | 35.4% | Active | 29.6% |  |  | Activity ([4]; filed as activator): 53.2%; Activity [5]: 4.3%; Activity ([6]; filed as activator): Active; Activity [7]: 9.3%; Activity ([8]; filed as activator): Dose-dependent effect; Activity [10]: 4.2%; Activity ([11]; filed as activator): 54.3%
CC1(C)[C@@H](O)CC[C@]2(C)[C@H]3C[C@@H](O)[C@@H]4[C@@H]([C@@](C)(O)CCC(=O)O)CC[C@@]4(C)[C@]3(C)CC[C@@H]12 |  | 37.4% | Active | 37.6% |  |  | Activity ([1]; filed as activator): 49.7%; Activity ([4]; filed as activator): 52.1%; Activity ([8]; filed as activator): Dose-dependent effect; Activity ([11]; filed as activator): 49.8%
CC(C)=CCC[C@](C)(O)[C@H]1CC[C@]2(C)[C@@H]1[C@H](O)C[C@@H]1[C@@]3(C)CC[C@H](O[C@@H]4O[C@H](CO)[C@@H](O)[C@H](O)[C@H]4O)C(C)(C)[C@@H]3CC[C@]12C |  |  |  |  |  |  | Activity [5]: 3.1%; Activity ([6]; filed as activator): Active; Activity [10]: 3.5%
CC(C)=C[C@H]1C[C@](C)(O)[C@@H]2[C@H]3CC[C@@H]4[C@@]5(C)CC[C@H](O)C(C)(C)[C@@H]5CC[C@@]4(C)[C@@]34CO[C@@]2(C4)O1 |  | 11.9% |  | 16.9% | 5.7% |  | Activity [3]: inactive
CC1(C)CCC[C@](C)([C@H]2CC[C@]3(C)[C@@H]2[C@H](O)C[C@@H]2[C@@]4(C)CC[C@H](O)C(C)(C)[C@@H]4[C@H](O)C[C@]23C)O1 |  |  |  |  |  |  | Activity [3]: inactive; Activity [8]: inactive
CC(C)(O)CCC[C@](C)(O)[C@H]1CC[C@]2(C)[C@@H]1[C@H](O)C[C@@H]1[C@@]3(C)CC[C@H](O)C(C)(C)[C@@H]3CC[C@]12C |  | 8.6% | Active | 17.3% | 7.5% | 15.6% | 
CC(C)=CCC[C@](C)(O[C@@H]1O[C@H](CO)[C@@H](O)[C@H](O)[C@H]1O)[C@H]1CC[C@]2(C)[C@@H]1[C@H](O)C[C@@H]1[C@@]3(C)CC[C@H](O[C@@H]4O[C@H](CO)[C@@H](O)[C@H](O)[C@H]4O[C@@H]4O[C@H](CO)[C@@H](O)[C@H](O)[C@H]4O)C(C)(C)[C@@H]3CC[C@]12C |  |  |  |  |  |  | Activity [12]: inactive; Activity [6]: inactive
CC(C)=CCC[C@@](C)(O)[C@H]1CC[C@]2(C)[C@@H]1[C@H](O)C[C@@H]1[C@@]3(C)CC[C@H](O)C(C)(C)[C@@H]3CC[C@]12C | 23.5% | 14.7% | Active | 12.6% | 14.3% | 10.2% | 
CC1(C)CCC[C@](C)([C@H]2CC[C@]3(C)[C@@H]2[C@H](O)C[C@@H]2[C@@]4(C)CC[C@H](O)C(C)(C)[C@@H]4CC[C@]23C)O1 | 7.1% |  | Active |  | 14.4% | 15.4% | 
CC(C)(O)[C@H]1CC[C@@](C)([C@H]2CC[C@]3(C)[C@@H]2[C@H](O)C[C@@H]2[C@@]4(C)CC[C@H](O)C(C)(C)[C@@H]4CC[C@]23C)O1 |  |  |  |  |  |  | Activity [3]: inactive; Activity [8]: inactive
CC(C)=CCC[C@](C)(O[C@@H]1O[C@H](CO)[C@@H](O)[C@H](O)[C@H]1O)[C@H]1CC[C@]2(C)[C@@H]1[C@H](O)C[C@@H]1[C@@]3(C)CC[C@H](O)C(C)(C)[C@@H]3[C@@H](O[C@@H]3O[C@H](CO)[C@@H](O)[C@H](O)[C@H]3O)C[C@]12C |  |  |  |  |  |  | Activity [12]: inactive; Activity [6]: inactive
CC(C)=CCC[C@](C)(O)[C@H]1CC[C@]2(C)[C@@H]1[C@H](O)C[C@@H]1[C@@]3(C)CC[C@H](O)C(C)(C)[C@@H]3[C@@H](O)C[C@]12C | 32.2% | 20.6% | Active | 19.1% | 19.7% | 13.6% | Activity [5]: 4.4%; Activity ([6]; filed as activator): Active; Activity [13]: 2.1%; Activity [10]: 3.4%

Reference: ChEMBL document CHEMBL4665724, “Structure-activity relationship analysis of dammarane-type natural products as muscle-type creatine kinase activators” (Bioorg Med Chem Lett, 2020)
